Drawing on PubChem BioAssay (NCI), this text covers TGI and GI50 for 20 molecules.

Holding throughout (assay): NCI anticancer screen, dose series, 48 h
Test [1] deals with BT-549 breast.
Test [2] concerns COLO 205 colon.
In test [3] the test system is HT29 colon.
The test system of test [4] is KM12 colon.
The test system of test [5] is MOLT-4 leukemia.
Test [6] concerns SK-MEL-2 melanoma.
For test [7], the system named is UO-31 renal.
Test [8] has as its system HCC-2998 colon.
Test [9] deals with HOP-92 NSCLC.
Test [10] deals with EKVX NSCLC.

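Interpolation was linear, between the two tested concentrations surrounding the appropriate level; five concentrations were tested over 48 hours in 96-well plates. GI50 = concentration required for 50% inhibition of growth. The concentration for full growth arrest is given as TGI.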

In the case of `Cc1cn([C@H]2C[C@H](O)[C@@H](CO)O2)c(=O)nc1N`, the TGI in test [1], in [2], in test [3], in [4], in test [5] and in test [6] was over 100 µM each time. The molecule also displayed a TGI in test [7] of over 100 µM.

Turning to `COc1cc(C(=O)O/N=C(\N)Cc2cccc3ccccc23)cc(OC)c1OC`, the GI50 was 14.6 µM in test [1]; 12.2 µM in test [2]; 17.2 µM in test [8]; 4.59 µM in test [9]; 15.7 µM in test [3]; 9.12 µM in test [4]. Besides, the GI50 was 4.53 µM in [5], 14.9 µM in test [6] and 5.26 µM in test [7]. Besides, the TGI stood at 29.7 µM in test [1]; 28.1 µM in test [2]; 34.3 µM in [8]; 17 µM in test [9]; 38.3 µM in test [3]; 22.1 µM in test [4]. Moreover, the TGI in [5] was 29.4 µM; in test [6], 29.4 µM; in test [7] it was 19.6 µM.

For the molecule `CCOC(=O)c1ccccc1SC(C[N+](=O)[O-])c1ccccc1` (stereo not given), the GI50 was 2.31 µM in test [1]; 3.6 µM in test [2]; 1.86 µM in [8]; 6.94 µM in [9]; 2.55 µM in [3]; 3.21 µM in test [4]. Also, the GI50 is 4.54 µM in test [5], 18.9 µM in test [6] and 2.43 µM in test [7]. Besides, the TGI in [1] is 5.53 µM; in test [2] it was 13 µM; in test [8], 3.36 µM; in test [9], 21.9 µM; in [3], 5.72 µM; in test [4], 10.4 µM. Moreover, the TGI came out at 30.6 µM in test [5], 36.6 µM in test [6] and 7.22 µM in test [7].

`O=C(Nc1ccc(Nc2ccncc2)cc1)c1ccc(Nc2ccnc3ccc([N+](=O)[O-])cc23)cc1[N+](=O)[O-]`: the GI50 in test [1] is over 78.5 µM; in test [2] it was 17.5 µM; in test [10], 22.5 µM; in test [8], 32.9 µM; in test [9], 24.6 µM; in test [3], 45.4 µM. In addition, the values for the GI50 in [4], in test [5] and in test [7] were 6.47 µM, 43.9 µM and 7.33 µM, respectively. Besides, the TGI in test [1] is over 100 µM; in test [2], over 100 µM; in test [10] it was over 100 µM; in [8], over 100 µM; in test [9], over 74.2 µM; in test [3], over 100 µM. The figures for the TGI in [4], in test [5] and in [7] were over 100 µM, over 100 µM and over 64.1 µM, respectively.

On to `COc1cc2cnc(-c3ccccc3)cc2cc1OC`, for which the TGI in test [1] was 68.6 µM; in test [2], 58.5 µM; in test [10], 34.3 µM; in test [9], 65.9 µM; in test [3], 45.5 µM; in [4] it was 61.2 µM. Besides, the figures for the TGI in test [5], in test [6] and in test [7] were 50.7 µM, 54.6 µM and over 100 µM, respectively.

With `Oc1ccc2ccccc2c1N=Nc1ccc(Cl)cc1`, the TGI in test [1], in test [2], in test [10], in [9], in [3] and in test [4] was over 100 µM in each case. Further, the TGI in [5], in test [6] and in test [7] was over 100 µM in each case.

Take `CC(C)C[CH2][Ge]([CH2]CC(C)C)([CH2]CC(C)C)[CH2]CC(C)C`: the GI50 in [1], in test [2], in test [10], in [3], in test [4] and in test [5] was over 100 µM in each case. The GI50 in test [6] and in [7] was over 100 µM each time. Moreover, the TGI in test [1], in test [2], in test [10], in test [3], in test [4] and in test [5] was over 100 µM in each case. Moreover, the TGI in test [6] and in test [7] was over 100 µM each time.

Consider `Fc1cccc(Cl)c1Cn1c(-c2c(F)cccc2Cl)nc2ccccc21`, for which the GI50 in [1] is 25.4 µM; in test [2], 17.5 µM; in test [10] it was 13.3 µM; in test [8] it was 2.31 µM; in test [9], 13.9 µM; in test [3] it was 30 µM. In addition, the GI50 in test [4] was 14.6 µM; in [5], 11.1 µM; in test [7] it was 12.4 µM. Also, the TGI in [1] was 53.2 µM; in test [2] it was over 100 µM; in test [10], 32.6 µM; in [8], 9.87 µM; in [9], 38.5 µM; in test [3] it was over 100 µM. Moreover, the TGI in test [4] is 42.4 µM; in test [5], over 100 µM; in test [7] it was 28.4 µM.

Take `O=C(Cc1ccc(Nc2ccnc(C(F)(F)F)c2)cc1)Nc1cc(Cl)ccc1O`: the GI50 in test [1] was 4.07 µM; in test [2], 21.7 µM; in [10], 3.12 µM; in test [8], 13.6 µM; in test [9], 1.96 µM; in test [3], 21.4 µM. The GI50 in test [4] is 4.36 µM; in test [5], 1.73 µM; in test [7] it was 2.84 µM. For the same molecule, the TGI in test [1] stood at 22.5 µM; in test [2], 55.4 µM; in test [10] it was 16.9 µM; in test [8], 28.4 µM; in test [9], 8.44 µM; in test [3] it was 53.5 µM. Further, the values for the TGI in test [4], in test [5] and in [7] were 16.9 µM, 5.39 µM and 18.2 µM, respectively.

Regarding `Nc1nccc2c1ccn2-c1cccc(NC(=O)c2ccc(N3CCOCC3)c(C(F)(F)F)c2)c1`, the GI50 was 1.04 µM in test [1]; 1.99 µM in [10]; 1.63 µM in test [8]; 0.347 µM in test [9]; 0.32 µM in test [3]; 0.313 µM in test [4]. The GI50 in test [5] was 1.7 µM; in test [6], 0.584 µM; in test [7], 1.2 µM. The TGI was 5.5 µM in test [1]; over 50 µM in test [10]; over 44.5 µM in test [8]; 3.23 µM in [9]; 1.45 µM in test [3]; 2.73 µM in [4]. Moreover, the TGI in [5] is over 22.8 µM; in test [6] it was 2.94 µM; in [7] it was 14 µM.

Turning to `COc1ccc(-c2nnc(SCC(=O)Nc3ccc(C(=O)/C=C/c4cc(OC)c(OC)c(OC)c4)cc3)n2-c2ccccc2)cc1OC`, the GI50 in test [1] was 1.98 µM; in test [2], over 10 µM; in test [8], 3.08 µM; in test [3], 2.07 µM; in test [4], 2.38 µM; in test [5] it was 9.46 µM. For the same molecule, the GI50 in test [6] and in test [7] was over 10 µM each time. Moreover, the TGI in test [1] is 7.99 µM; in [2], over 10 µM; in test [8], over 10 µM; in [3], over 10 µM; in [4], over 10 µM; in test [5] it was over 10 µM. Besides, the TGI in test [6] and in test [7] was over 10 µM throughout.

For `COc1ccc(-c2nc(-c3ccccn3)c(-c3ccccn3)n2CC(C)C)cc1OC1CCCC1`, the GI50 in test [1] was 50 µM; in [2], 52.2 µM; in test [3], 35.3 µM; in [4] it was 11.1 µM; in test [5] it was 18 µM; in test [6], 38.4 µM. The GI50 in [7] is 7.43 µM. In addition, the TGI is over 165 µM in test [1]; over 165 µM in test [2]; 134 µM in test [3]; over 165 µM in test [4]; 61.6 µM in [5]; 80.2 µM in test [6]. In test [7], this molecule displayed a TGI of 142 µM.

For the molecule `Fc1ccc([C@@H]2CCNC[C@H]2COc2ccc3c(c2)OCO3)cc1`, the GI50 in test [1] is 12.2 µM; in test [2], 1.91 µM; in test [8], 2.1 µM; in [9] it was 1.62 µM; in [3] it was 3.52 µM; in test [4], 3.86 µM. The GI50 was 5.72 µM in [6] and 5.76 µM in test [7]. Besides, the TGI was found to be 26.1 µM in test [1]; 3.69 µM in test [2]; 4.39 µM in test [8]; 12.8 µM in test [9]; 13.9 µM in [3]; 14.1 µM in test [4]. For the same molecule, the TGI turned out to be 18.5 µM in [6] and 19.6 µM in [7].

`COc1ccc(C(=O)/C=C/c2cc(-c3ccc4c(c3)OCO4)n[nH]2)cc1OC`: the GI50 in test [1] was 1.97 µM; in test [2], 3.84 µM; in test [8] it was 4.99 µM; in test [9], 2.16 µM; in test [3] it was 2.98 µM; in [4] it was 2.86 µM. Also, the GI50 in test [5] is 3 µM; in [6], 6.93 µM; in test [7], 2.32 µM. For the same molecule, the TGI came to 4.21 µM in test [1]; 14 µM in test [2]; 17.3 µM in [8]; 8.11 µM in test [9]; 11.3 µM in test [3]; 9.48 µM in [4]. The figures for the TGI in test [5], in test [6] and in [7] were 10.3 µM, 23.2 µM and 10.1 µM, respectively.

With `O=C1CCSC(=S)N1c1ccc(Br)c(Cl)c1`, the TGI in test [1] is 41.1 µM; in [2], 41.2 µM; in test [10], over 100 µM; in [9] it was 69.1 µM; in [3], 33.8 µM; in test [4], 85.9 µM. The TGI is over 100 µM in test [5], 58.2 µM in [6] and 82 µM in test [7].

For `O=C1NC(=O)[C@@H](c2c[nH]c3ccccc23)[C@@H]1c1c[nH]c2ccccc12`, the GI50 in [1] is over 25 µM; in test [2], over 25 µM; in test [8], over 25 µM; in [9] it was 21.2 µM; in test [3], over 25 µM; in [4], over 25 µM. Also, the figures for the GI50 in test [5], in [6] and in test [7] were over 25 µM, over 25 µM and over 16.4 µM, respectively. Further, the TGI in [1], in [2], in [8], in test [9], in test [3] and in [4] was over 25 µM throughout. For the same molecule, the TGI in test [5], in test [6] and in [7] was over 25 µM each time.

With `Oc1ccc(Oc2cnc3cc(Cl)ccc3n2)cc1`, the GI50 in [1] was 20.9 µM; in test [2] it was 92.4 µM; in [10] it was 13.2 µM; in test [8] it was 24.1 µM; in test [9], 37.3 µM; in [3], 51.7 µM. The results for the GI50 in test [4], in test [5] and in test [7] were 13.4 µM, 14.6 µM and 3.88 µM, respectively. For the same molecule, the TGI in test [1] is over 100 µM; in test [2], over 100 µM; in test [10] it was 74.4 µM; in test [8], 61.6 µM; in [9] it was over 100 µM; in test [3], over 100 µM. Moreover, the TGI in test [4] was over 100 µM; in test [5], over 100 µM; in test [7] it was 94 µM.

Take `Cc1cccc(C(C)C)c1NC(=O)CCl`: the TGI is over 100 µM in [2]; 53.2 µM in test [10]; over 100 µM in [8]; over 100 µM in test [9]; over 100 µM in test [3]; over 100 µM in [4]. The TGI in test [5], in [6] and in test [7] was over 100 µM throughout.

As for `CCOC(OCC)C(CC)[Se]c1ccccc1` (stereo not given), the TGI in test [2], in test [10], in test [8], in test [9], in test [3] and in [4] was over 100 µM throughout. For the same molecule, the TGI in [5], in test [6] and in [7] was over 100 µM each time.

For `CCOc1cc2c(=O)oc3c(OC)ccc4ccc(c1OC)c2c43`, the TGI in [2], in test [10], in test [8], in test [9], in [3] and in [4] was over 100 µM throughout. In addition, the TGI in test [5], in [6] and in test [7] was over 100 µM each time.
